From US20080038809A1, “ISOLATED LECTIN POLYPEPTIDES CONSISTING OF TRUNCATED […] UDP-GalNAc:POLYPEPTIDE N- ACETYLGALACTOSAMINYLTRANSFERASES” (GLYCOZYM APS, priority 2002, published 2008)

Experiments:
[1] = target: T1, GalNAc-T4 lectin domain (Homo sapiens, UniProt Q8N4A0); assay: Inhibition of GalNAc-T4 lectin domain (T4ld) binding to GalNAc-MUC1 glycopeptide, ELISA
T1 construct: comprises amino acid residues 405-578 of GALNT4; made in house; host or cells: baculovirus (pAcGP67-A), virus made in Sf9, protein produced in High Five insect cells
Protocol: (§1) Direct binding ELISA assay was developed as follows: Polystyrene microtiter plates (Maxisorb, Nunc, Denmark) were coated with peptides or enzymatically glycosylated glycopeptides in PBS overnight at 4° C. Plates were washed and blocked with 0.1% Tween20 and 0.2% BSA in PBS for 1 h at room temperature, followed by incubation with biotinylated proteins in PBS with 0.05% Tween20 for 2 h at room temperature. After four washes with PBS, plates were incubated with 1:2,000 dilution streptavidin-HRP (Sigma) in PBS for 30 min at room temperature and washed four times with PBS. Development was performed with 0.5 mg/ml o-phenylenediamine and 0.02% H2O2 at room temperature for 15 min, and reaction stopped by adding 100 μl/well of 0.5 N H2SO4. Competitive inhibition assays were done at end-point titers of GalNAc-transferase proteins with one hour preincubations with inhibitor.
(§2) In binding studies using lectins without biotinylation antibodies to the HIS-tag and the T7-tag, or in some experiments antibodies raised to GalNAc-T2 and -T4 enzymes were used to detect binding.
(§3) Inhibition experiments were used to further define the binding specificity of GalNAc-T2 and -T4 secreted soluble enzymes as well as lectin domains compared to Helix Pomatia lectin (Table IV).

[2] = target: T2, secreted soluble GalNAc-T4 (Homo sapiens, UniProt Q8N4A0); assay: Inhibition of secreted soluble GalNAc-T4 (sT4) binding to GalNAc-MUC1 glycopeptide, ELISA
T2 construct: 6xHis (N); thrombin cleavage site (N); T7 antibody site (N); made in house; host or cells: baculovirus (pAcGP67A), High Five insect cells
Protocol: as §1, §3

[3] = target: T3, secreted soluble GalNAc-T2 (Homo sapiens, UniProt Q10471); assay: Inhibition of secreted soluble GalNAc-T2 (sT2) binding to GalNAc-MUC1 glycopeptide, ELISA
T3 construct: 6xHis (N); thrombin cleavage site (N); T7 antibody site (N); made in house; host or cells: baculovirus (pAcGP67A), High Five insect cells
Protocol: as §1, §3

[4] = target: human GalNAc-T2 (UDP-GalNAc:polypeptide N-acetylgalactosaminyltransferase T2), secreted soluble enzyme (sT2), wild type (Homo sapiens, UniProt Q10471); assay: biochemical; conditions: binding to GalNAc-MUC1 glycopeptide
Protocol: The pH of 1 ml purified protein (0.3 mg/ml) in PBS was adjusted to pH 9 with 1 M NaOH and 40 μl N-hydroxy-succinimidobiotin (Sigma) dissolved in DMF (10 mg/ml) was added. The solution was mixed end-over-end for 2 hours at room temperature, and dialyzed three times against PBS and an equal volume of glycerol was added. The biotinylated proteins were stored at −20° C. in 50% glycerol until use.
Glycopeptides were purified by C-18 reverse phase HPLC. Peptides were custom synthesized by Neosystems (Strasbourg). Biotinylated Helix Pomatia lectin (HPA) was from KemEnTec (Denmark). Anti-MUC1 HMFG2 monoclonal antibody was a generous gift from Joyce Taylor-Papadimitriou.
as §1, with “Development was performed with 0.5 mg/ml o-phenylenediamine and 0.02% H2O2 at room temperature for 15 min, and reaction stopped by adding 100 μl/well of 0.5 N H2SO4. Competitive inhibition assays were done at end-point titers of GalNAc-transferase proteins with one hour preincubations with inhibitor.” left out

[5] = target: T4, GalNAc-T2 lectin domain (Homo sapiens, UniProt Q10471); assay: Inhibition of GalNAc-T2 lectin domain (T2ld) binding to GalNAc-MUC1 glycopeptide, ELISA
T4 construct: comprises amino acid residues 408-571 of GALNT2; made in house; host or cells: baculovirus (pAcGP67-A), virus made in Sf9, protein produced in High Five insect cells
T4 sequence (Q10471 408-571): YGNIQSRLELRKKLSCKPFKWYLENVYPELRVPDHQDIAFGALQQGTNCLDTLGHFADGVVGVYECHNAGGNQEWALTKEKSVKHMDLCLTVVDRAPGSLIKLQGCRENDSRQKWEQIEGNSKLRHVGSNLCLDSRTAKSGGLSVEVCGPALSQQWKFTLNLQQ
Protocol: as §1, §2, §3

[6] = tested on: unglycosylated MUC1 peptide; assay: Direct binding assay (ELISA) of biotinylated GalNAc-transferases to unglycosylated MUC1 peptide (FIG. 4); parameters: species or system human; conditions: coated at 1 μg/ml, biotinylated enzymes
Protocol: (§4) FIG. 4 is a plot of absorbance v. ligand dilution showing GalNAc-transferase binding to GalNAc-MUC1 glycopeptide. A direct binding assay (ELISA) mediated by the lectin domain was developed and validated with soluble secreted GalNAc-T4 and -T2 enzyme proteins. ELISA plates were coated with peptides or glycopeptides at 1 μg/ml, blocked with BSA, and incubated with biotinylated enzymes. After washing, bound enzyme proteins were detected with HRP-Streptavidin as described in detail in Example 2. Secreted soluble constructs of GalNAc-transferases which are enzymatically active may bind to (glyco)peptide substrates through their catalytic units as originally described for GalNAc-T2^32.
as §1, with “Development was performed with 0.5 mg/ml o-phenylenediamine and 0.02% H2O2 at room temperature for 15 min, and reaction stopped by adding 100 μl/well of 0.5 N H2SO4. Competitive inhibition assays were done at end-point titers of GalNAc-transferase proteins with one hour preincubations with inhibitor.” left out

[7] = tested on: GalNAc-MUC1 glycopeptide; assay: Direct binding assay (ELISA) of biotinylated GalNAc-transferases to GalNAc-MUC1 glycopeptide (FIG. 4); parameters: species or system human; conditions: coated at 1 μg/ml, biotinylated enzymes
Protocol: as §4
as §1, with “Development was performed with 0.5 mg/ml o-phenylenediamine and 0.02% H2O2 at room temperature for 15 min, and reaction stopped by adding 100 μl/well of 0.5 N H2SO4. Competitive inhibition assays were done at end-point titers of GalNAc-transferase proteins with one hour preincubations with inhibitor.” left out

T2 sequence (Q8N4A0 36-578 limits assumed): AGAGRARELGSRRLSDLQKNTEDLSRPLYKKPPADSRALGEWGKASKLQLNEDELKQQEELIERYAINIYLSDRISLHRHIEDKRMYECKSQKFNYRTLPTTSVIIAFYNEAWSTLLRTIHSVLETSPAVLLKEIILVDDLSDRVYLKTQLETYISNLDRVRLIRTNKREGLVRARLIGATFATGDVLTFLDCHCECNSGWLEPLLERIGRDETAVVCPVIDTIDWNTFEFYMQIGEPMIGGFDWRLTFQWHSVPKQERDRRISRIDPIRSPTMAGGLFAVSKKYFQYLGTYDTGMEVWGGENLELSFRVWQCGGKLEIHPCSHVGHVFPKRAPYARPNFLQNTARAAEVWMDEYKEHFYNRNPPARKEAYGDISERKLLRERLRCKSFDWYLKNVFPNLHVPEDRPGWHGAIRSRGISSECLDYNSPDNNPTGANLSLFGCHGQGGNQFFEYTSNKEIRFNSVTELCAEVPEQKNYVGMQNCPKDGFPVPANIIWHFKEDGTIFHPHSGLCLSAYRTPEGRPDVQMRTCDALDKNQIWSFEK
T3 sequence (Q10471 52-571 limits assumed): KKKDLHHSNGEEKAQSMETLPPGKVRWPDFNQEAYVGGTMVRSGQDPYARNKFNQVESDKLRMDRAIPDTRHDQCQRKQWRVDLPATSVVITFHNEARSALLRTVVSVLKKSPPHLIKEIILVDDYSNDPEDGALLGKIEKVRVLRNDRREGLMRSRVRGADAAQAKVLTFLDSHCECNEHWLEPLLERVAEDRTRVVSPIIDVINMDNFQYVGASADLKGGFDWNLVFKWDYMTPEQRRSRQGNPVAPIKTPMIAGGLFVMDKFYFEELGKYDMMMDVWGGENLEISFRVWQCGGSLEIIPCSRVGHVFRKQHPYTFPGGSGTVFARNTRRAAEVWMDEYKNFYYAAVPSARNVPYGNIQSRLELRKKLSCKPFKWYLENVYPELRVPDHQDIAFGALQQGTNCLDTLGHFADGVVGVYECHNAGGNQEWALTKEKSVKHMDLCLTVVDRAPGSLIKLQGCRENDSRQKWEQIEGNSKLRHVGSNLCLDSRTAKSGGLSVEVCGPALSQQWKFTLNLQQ
human GalNAc-T2 (UDP-GalNAc:polypeptide N-acetylgalactosaminyltransferase T2), secreted soluble enzyme (sT2), wild type, sequence (Q10471 52-571 limits assumed): as above
T1 sequence (Q8N4A0 405-578): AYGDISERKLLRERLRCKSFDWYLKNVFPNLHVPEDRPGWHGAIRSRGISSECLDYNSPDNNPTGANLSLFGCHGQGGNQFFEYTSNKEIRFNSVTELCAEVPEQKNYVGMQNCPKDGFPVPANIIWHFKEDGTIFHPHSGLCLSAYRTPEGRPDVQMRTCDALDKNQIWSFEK

Compound | IC50 [2] | IC50 [3] | binding to unglycosylated MUC1 peptide [6] | binding to GalNAc-MUC1 glycopeptide [7] | also measured
CC(=O)N[C@H]1[C@@H](Oc2ccccc2[N+](=O)[O-])O[C@H](CO)[C@H](O)[C@@H]1O [oNPαGalNAc] | 0.5 mM | 7 mM | – | – | IC50 [1]: 5 mM
CC(=O)N[C@H]1[C@H](Oc2ccccc2[N+](=O)[O-])O[C@H](CO)[C@H](O)[C@@H]1O [oNPβGalNAc] | – | – | – | – | IC50 [4]: 10 mM
CC(=O)N[C@H]1[C@@H](Oc2ccc([N+](=O)[O-])cc2)O[C@H](CO)[C@H](O)[C@@H]1O [pNPαGalNAc] | 1 mM | > 10 mM | – | – | IC50 [5]: > 10 mM
GalNAc-T2: soluble secreted human GalNAc-T2 enzyme protein, biotinylated | – | – | no significant binding | selectively bind | –
GalNAc-T4 wild type: soluble secreted human GalNAc-T4 enzyme protein, biotinylated | – | – | no significant binding | selectively bind | –
